Measured values published in the RepoRT retention time repository (doi:10.1016/j.jchromb.2020.122105).

Key:
Settings in all cases: stereoisomer not certain
[1] = RP, Waters ACQUITY UPLC BEH C18, 100 × 2.1 mm, 1.7 µm, 0.2 mL/min, estimated dead time 1.1 min; A: water + 0.025% formic acid + 20 mM ammonium acetate + 0.055% ammonium hydroxide, pH 7; B: methanol; gradient (min/%B) 0/5 5/5 25/100 30/100 30.1/5 35/5
[2] = RP, Waters ACQUITY UPLC BEH C18, 100 × 2.1 mm, 1.7 µm, 0.1 mL/min, estimated dead time 2.2 min; A: water + 0.1% formic acid, pH 3; B: methanol + 0.1% formic acid, pH 3; gradient (min/%B) 0/5 5/5 25/95 25.1/100 35/100 35.1/5 45/5
[3] = RP, Waters ACQUITY UPLC BEH C18, 100 × 2.1 mm, 1.7 µm, 0.2 mL/min, estimated dead time 1.1 min; A: water + 0.025% formic acid + 20 mM ammonium acetate + 0.055% ammonium hydroxide, pH 7; B: methanol; gradient (min/%B) 0/5 5/5 25/100 30/100 30.1/5 35/5; remark: listed apart in the source
[4] = RP, Waters CORTECS T3, 100 × 2.1 mm, 2.7 µm, 0.3 mL/min, estimated dead time 0.73 min; A: water + 0.1% formic acid, pH 3; B: methanol + 0.1% formic acid, pH 3; gradient (min/%B) 0/0 5/0 25/100 30/100 30.1/0 35/0
[5] = RP, Waters ACQUITY UPLC BEH C18, 100 × 2.1 mm, 1.7 µm, 0.1 mL/min, estimated dead time 2.2 min; A: water + 0.1% formic acid, pH 3; B: methanol + 0.1% formic acid, pH 3; gradient (min/%B) 0/5 5/5 25/95 25.1/100 35/100 35.1/5 45/5; remark: listed apart in the source
[6] = RP, Waters CORTECS T3, 100 × 2.1 mm, 2.7 µm, 0.1 mL/min, estimated dead time 2.2 min; A: water + 0.1% formic acid, pH 3; B: methanol + 0.1% formic acid, pH 3; gradient (min/%B) 0/0 1/0 6/5 30/100 35/100 35.1/0 40/0
[7] = RP, Waters CORTECS T3, 100 × 2.1 mm, 2.7 µm, 0.15 mL/min, estimated dead time 1.5 min; A: water + 0.1% formic acid, pH 3; B: methanol + 0.1% formic acid, pH 3; gradient (min/%B) 0/5 5/5 25/95 25.1/100 35/100 35.1/5 45/5
[8] = RP, Waters CORTECS T3, 100 × 2.1 mm, 2.7 µm, 0.3 mL/min, estimated dead time 0.73 min; A: water + 0.1% formic acid, pH 3; B: methanol + 0.1% formic acid, pH 3; gradient (min/%B) 0/0 5/0 25/100 30/100 30.1/0 35/0; remark: listed apart in the source
[9] = RP, Waters CORTECS T3, 100 × 2.1 mm, 2.7 µm, 0.25 mL/min, estimated dead time 0.88 min; A: water + 0.1% formic acid, pH 3; B: methanol + 0.1% formic acid, pH 3; gradient (min/%B) 0/0 1/0 6/5 30/100 35/100 35.1/0 40/0
[10] = HILIC, Thermo Scientific Accucore HILIC, 100 × 2.1 mm, 2.6 µm, 0.5 mL/min, estimated dead time 0.44 min; A: water + 0.1% formic acid + 10 mM ammonium formate, pH 3; B: 5% water + 95% acetonitrile + 0.1% formic acid + 10 mM ammonium formate, pH 3; gradient (min/%B) 0/95 5/95 20/57 25/57 30/95 40/95
[11] = HILIC, Waters XBridge BEH Amide, 100 × 2.1 mm, 2.5 µm, 0.5 mL/min, estimated dead time 0.44 min; A: water + 0.1% acetic acid + 10 mM ammonium acetate, pH 4; B: 5% water + 95% acetonitrile + 0.1% acetic acid + 10 mM ammonium acetate, pH 4; gradient (min/%B) 0/95 5/95 20/57 25/57 30/95 40/95
[12] = RP, Thermo Scientific Hypercarb, 150 × 2.1 mm, 5 µm, 0.1 mL/min, estimated dead time 3.3 min; A: water + 0.1% formic acid, pH 3; B: methanol + 0.1% formic acid, pH 3; gradient (min/%B) 0/5 5/5 20/100 35/100 35.1/5 45/5

Cc1cc2nc3c(=O)[nH]c(=O)nc-3n(CC(O)C(O)C(O)CO)c2cc1C (stereo not given) [RIBOFLAVIN]
LC retention time [1]: 11.9 min | LC retention time [2]: 15.7 min | LC retention time [3]: 12.7 min | LC retention time [4]: 12.5 min | LC retention time [5]: 15.7 min | LC retention time [6]: 13.1 min | LC retention time [7]: 14.1 min | LC retention time [8]: 12.5 min | LC retention time [9]: 14 min

O=C(O)c1cc(=O)c2ccccc2[nH]1 [4-HYDROXY-2-QUINOLINECARBOXYLIC ACID]
LC retention time [1]: 5.96 min | LC retention time [10]: 6.71 min | LC retention time [3]: 8.26 min | LC retention time [4]: 10.5 min | LC retention time [5]: 14.3 min | LC retention time [11]: 8.25 min | LC retention time [6]: 10.7 min | LC retention time [7]: 12.1 min | LC retention time [8]: 10.5 min | LC retention time [9]: 11.4 min

CC(=O)N[C@H](Cc1c[nH]c2ccccc12)C(=O)O [N-ACETYL-D-TRYPTOPHAN]
LC retention time [1]: 9.66 min | LC retention time [2]: 17.6 min | LC retention time [4]: 13.2 min | LC retention time [11]: 8.11 min | LC retention time [6]: 13.9 min | LC retention time [7]: 15.2 min | LC retention time [8]: 13.2 min | LC retention time [9]: 14.8 min

CC1NC(=O)NC1CCCCCC(=O)O (stereo not given) [DETHIOBIOTIN]
LC retention time [1]: 8.17 min | LC retention time [2]: 17.2 min | LC retention time [3]: 9.58 min | LC retention time [4]: 13.2 min | LC retention time [6]: 13.9 min | LC retention time [12]: 30 min | LC retention time [7]: 15.1 min | LC retention time [8]: 13.2 min | LC retention time [9]: 14.9 min

O=C(O)c1cc(=O)c2cccc(O)c2[nH]1 [XANTHURENIC ACID]
LC retention time [1]: 1.36 min | LC retention time [2]: 14 min | LC retention time [10]: 7.89 min | LC retention time [4]: 10.3 min | LC retention time [5]: 13.9 min | LC retention time [6]: 10.4 min | LC retention time [7]: 11.8 min | LC retention time [8]: 10.3 min | LC retention time [9]: 11.1 min

N[C@@H](Cc1cc(I)c(Oc2ccc(O)cc2)c(I)c1)C(=O)O [3,5-DIIODO-L-THYRONINE]
LC retention time [1]: 15.8 min | LC retention time [10]: 8.63 min | LC retention time [3]: 17.1 min | LC retention time [4]: 16.1 min | LC retention time [5]: 20.2 min | LC retention time [6]: 17.1 min | LC retention time [7]: 18.1 min | LC retention time [8]: 16.1 min | LC retention time [9]: 18.6 min

Nc1nc2nccnc2c(=O)[nH]1 [PTERIN]
LC retention time [1]: 1.41 min | LC retention time [2]: 4.74 min | LC retention time [10]: 3.39 min | LC retention time [4]: 2.96 min | LC retention time [11]: 4.98 min | LC retention time [7]: 3.45 min | LC retention time [8]: 3.11 min

O=c1[nH]c(=O)c2[nH]cnc2[nH]1 [XANTHINE]
LC retention time [1]: 1.36 min | LC retention time [2]: 2.82 min | LC retention time [10]: 1.92 min | LC retention time [4]: 2.27 min | LC retention time [5]: 2.66 min | LC retention time [11]: 6.47 min | LC retention time [7]: 3.01 min | LC retention time [8]: 2.39 min | LC retention time [9]: 2.63 min

CC(C)=CCNc1ncnc2nc[nH]c12 [N6-(DELTA2-ISOPENTENYL)-ADENINE]
LC retention time [1]: 15.4 min | LC retention time [2]: 17.2 min | LC retention time [10]: 0.92 min | LC retention time [3]: 16.8 min | LC retention time [4]: 12.7 min | LC retention time [5]: 17.3 min | LC retention time [11]: 0.72 min | LC retention time [6]: 13.4 min | LC retention time [7]: 14.7 min | LC retention time [8]: 12.8 min | LC retention time [9]: 14.2 min

CC(C)(CO)C(O)C(=O)NCCC(=O)O [D-PANTOTHENIC ACID]
LC retention time [1]: 1.46 min | LC retention time [2]: 11.6 min | LC retention time [10]: 4.93 min | LC retention time [4]: 8.53 min | LC retention time [6]: 7.4 min | LC retention time [12]: 21.3 min | LC retention time [7]: 9.08 min | LC retention time [8]: 8.6 min | LC retention time [9]: 8.69 min
